According to PubChem BioAssay AID1259407 (Chemical Carcinogenesis Research Information System (CCRIS), 2018):
Activity calls are given as the source filed them. How the calls were made is not given here.

Test system: CCRIS mutagenicity, Ames/micronucleus/aberration tests
Assay: CCRIS mutagenicity studies
[1] = Test System: AMES SALMONELLA TYPHIMURIUM, Strain/Indicator: TA100, Metabolic Activation: NONE, Method: PREINCUBATION
[2] = Test System: AMES SALMONELLA TYPHIMURIUM, Strain/Indicator: TA1535, Metabolic Activation: NONE, Method: PREINCUBATION
[3] = Test System: AMES SALMONELLA TYPHIMURIUM, Strain/Indicator: TA1537, Metabolic Activation: NONE, Method: PREINCUBATION

SMILES: Cc1c(F)c(N2CCNC(C)C2)cc2c1c(=O)c(C(=O)O)cn2C1CC1 (configuration not stated)
- mutagenic call (Test System: AMES SALMONELLA TYPHIMURIUM, Strain/Indicator: TA98, Metabolic Activation: NONE, Method: PREINCUBATION): inactive; negative
- mutagenic call (Test System: AMES SALMONELLA TYPHIMURIUM, Strain/Indicator: TA98, Metabolic Activation: RAT, LIVER, S-9, PHENOBARBITAL AND 5,6-BENZOFLAVONE, Method: PREINCUBATION): inactive; negative
- mutagenic call [1]: inactive; negative
- mutagenic call (Test System: AMES SALMONELLA TYPHIMURIUM, Strain/Indicator: TA100, Metabolic Activation: RAT, LIVER, S-9, PHENOBARBITAL AND 5,6-BENZOFLAVONE, Method: PREINCUBATION): inactive; negative
- mutagenic call [2]: inactive; negative
- mutagenic call (Test System: AMES SALMONELLA TYPHIMURIUM, Strain/Indicator: TA1535, Metabolic Activation: RAT, LIVER, S-9, PHENOBARBITAL AND 5,6-BENZOFLAVONE, Method: PREINCUBATION): inactive; negative
- mutagenic call [3]: inactive; negative
- mutagenic call (Test System: AMES SALMONELLA TYPHIMURIUM, Strain/Indicator: TA1537, Metabolic Activation: RAT, LIVER, S-9, PHENOBARBITAL AND 5,6-BENZOFLAVONE, Method: PREINCUBATION): inactive; negative
- mutagenic call (Test System: CHINESE HAMSTER V-79, Strain/Indicator: V-79 (HGPRT)/6-THIOGUANINE, Metabolic Activation: NONE): inactive; negative
- mutagenic call (Test System: CHINESE HAMSTER V-79, Strain/Indicator: V-79 (HGPRT)/6-THIOGUANINE, Metabolic Activation: RAT, LIVER, S-9, PHENOBARBITAL AND 5,6-BENZOFLAVONE): inactive; negative
- mutagenic call (Test System: E. COLI, Strain/Indicator: WP2 UVRA, Metabolic Activation: NONE, Method: PREINCUBATION): inactive; negative
- mutagenic call (Test System: E. COLI, Strain/Indicator: WP2 UVRA, Metabolic Activation: RAT, LIVER, S-9, PHENOBARBITAL AND 5,6-BENZOFLAVONE, Method: PREINCUBATION): inactive; negative

SMILES: [Si]
- mutagenic call (Test System: AMES SALMONELLA TYPHIMURIUM, Strain/Indicator: TA98, Metabolic Activation: RAT LIVER S-9, PHENOBARBITAL AND BETA-NAPHTHOFLAVONE, Method: GAS EXPOSURE): active; positive
- mutagenic call (Test System: AMES SALMONELLA TYPHIMURIUM, Strain/Indicator: TA98, Metabolic Activation: RAT, LIVER, S-9, PHENOBARBITAL AND 5,6-BENZOFLAVONE, Method: GAS EXPOSURE): active; positive
- mutagenic call (Test System: AMES SALMONELLA TYPHIMURIUM, Strain/Indicator: TA100, Metabolic Activation: NONE, Method: GAS EXPOSURE): inactive; negative
- mutagenic call (Test System: AMES SALMONELLA TYPHIMURIUM, Strain/Indicator: TA100, Metabolic Activation: RAT LIVER S-9, PHENOBARBITAL AND BETA-NAPHTHOFLAVONE, Method: GAS EXPOSURE): inactive; negative
- mutagenic call (Test System: AMES SALMONELLA TYPHIMURIUM, Strain/Indicator: TA100, Metabolic Activation: RAT, LIVER, S-9, PHENOBARBITAL AND 5,6-BENZOFLAVONE, Method: GAS EXPOSURE): inactive; negative
- mutagenic call (Test System: AMES SALMONELLA TYPHIMURIUM, Strain/Indicator: TA1535, Metabolic Activation: NONE, Method: GAS EXPOSURE): inactive; negative
- mutagenic call (Test System: AMES SALMONELLA TYPHIMURIUM, Strain/Indicator: TA1535, Metabolic Activation: RAT LIVER S-9, PHENOBARBITAL AND BETA-NAPHTHOFLAVONE, Method: GAS EXPOSURE): inactive; negative
- mutagenic call (Test System: AMES SALMONELLA TYPHIMURIUM, Strain/Indicator: TA1535, Metabolic Activation: RAT, LIVER, S-9, PHENOBARBITAL AND 5,6-BENZOFLAVONE, Method: GAS EXPOSURE): inactive; negative
- mutagenic call (Test System: AMES SALMONELLA TYPHIMURIUM, Strain/Indicator: TA1537, Metabolic Activation: RAT, LIVER, S-9, PHENOBARBITAL AND 5,6-BENZOFLAVONE, Method: GAS EXPOSURE): active; positive
- mutagenic call (Test System: E. COLI, Strain/Indicator: WP2 UVRA, Metabolic Activation: NONE, Method: GAS EXPOSURE): inactive; negative
- mutagenic call (Test System: E. COLI, Strain/Indicator: WP2 UVRA, Metabolic Activation: RAT, LIVER, S-9, PHENOBARBITAL AND 5,6-BENZOFLAVONE, Method: GAS EXPOSURE): inactive; negative
- mutagenic call (Test System: E.COLI, Strain/Indicator: WP2UVRA, Metabolic Activation: NONE, Method: GAS EXPOSURE): inactive; negative
- mutagenic call (Test System: E.COLI, Strain/Indicator: WP2UVRA, Metabolic Activation: RAT LIVER S-9, PHENOBARBITAL AND BETA-NAPHTHOFLAVONE, Method: GAS EXPOSURE): inactive; negative

SMILES: CC[C@@H](C)[C@@H](N)C(=O)OC
- mutagenic call (End Point: IN VIVO MICRONUCLEUS, Test System: BONE MARROW POLYCHROMATIC ERYTHROCYTES, Species: MOUSE, Strain/Sex: DDY/MALE, Route: IP): inactive; negative

SMILES: Cc1cc(N=Nc2c(O)ccc3ccccc23)c(S(=O)(=O)O)cc1Cl
- mutagenic call (End Point: IN VITRO CHROMOSOMAL ABERRATIONS, Test System: CHO CELLS, Metabolic Activation: NONE): inactive; negative
- mutagenic call (End Point: IN VITRO CHROMOSOMAL ABERRATIONS, Test System: CHO CELLS, Metabolic Activation: RAT, LIVER, S-9, AROCLOR 1254): inactive; negative
- mutagenic call (Test System: AMES SALMONELLA TYPHIMURIUM, Strain/Indicator: TA97, Metabolic Activation: HAMSTER, LIVER, S-9, AROCLOR 1254 (10%), Method: PREINCUBATION): inactive; negative
- mutagenic call (Test System: AMES SALMONELLA TYPHIMURIUM, Strain/Indicator: TA97, Metabolic Activation: NONE, Method: PREINCUBATION): inactive; negative
- mutagenic call (Test System: AMES SALMONELLA TYPHIMURIUM, Strain/Indicator: TA97, Metabolic Activation: RAT, LIVER, S-9, AROCLOR 1254 (10%), Method: PREINCUBATION): inactive; negative
- mutagenic call (Test System: AMES SALMONELLA TYPHIMURIUM, Strain/Indicator: TA98, Metabolic Activation: HAMSTER, LIVER, S-9, AROCLOR 1254 (5, 10 OR 30%), Method: PREINCUBATION): inactive; negative
- mutagenic call (Test System: AMES SALMONELLA TYPHIMURIUM, Strain/Indicator: TA98, Metabolic Activation: RAT, LIVER, S-9, AROCLOR 1254 (10%), Method: PREINCUBATION): inactive; negative
- mutagenic call (Test System: AMES SALMONELLA TYPHIMURIUM, Strain/Indicator: TA100, Metabolic Activation: HAMSTER, LIVER, S-9, AROCLOR 1254 (10%), Method: PREINCUBATION): inactive; negative
- mutagenic call [1]: inactive; negative
- mutagenic call (Test System: AMES SALMONELLA TYPHIMURIUM, Strain/Indicator: TA100, Metabolic Activation: RAT, LIVER, S-9, AROCLOR 1254 (10%), Method: PREINCUBATION): inactive; negative
- mutagenic call (Test System: AMES SALMONELLA TYPHIMURIUM, Strain/Indicator: TA100, Metabolic Activation: RAT, LIVER, S-9, AROCLOR 1254, FLAVIN MONONUCLEOTIDE, Method: PREINCUBATION (PRIVAL METHOD)): inactive; negative
- mutagenic call (Test System: AMES SALMONELLA TYPHIMURIUM, Strain/Indicator: TA100, Metabolic Activation: RAT, LIVER, S-9, AROCLOR 1254, Method: PREINCUBATION): inactive; negative
- mutagenic call (Test System: AMES SALMONELLA TYPHIMURIUM, Strain/Indicator: TA1535, Metabolic Activation: HAMSTER, LIVER, S-9, AROCLOR 1254 (10%), Method: PREINCUBATION): inactive; negative
- mutagenic call [2]: inactive; negative
- mutagenic call (Test System: AMES SALMONELLA TYPHIMURIUM, Strain/Indicator: TA1535, Metabolic Activation: RAT, LIVER, S-9, AROCLOR 1254 (10%), Method: PREINCUBATION): inactive; negative
- mutagenic call [3]: inactive; negative

SMILES: CCCS
- mutagenic call (Test System: MOUSE LYMPHOMA, Strain/Indicator: L5178Y (TK+/TK-), Metabolic Activation: RAT, LIVER, S-9, AROCLOR 1254, Method: SUSPENSION/PLATE): active; positive. reevaluation of results: equivocal
- mutagenic call (Test System: Mouse lymphoma, Strain/Indicator: L5178Y (tk+/tk-), Metabolic Activation: None, Method: Suspension/plate): inactive; negative

SMILES: c1ccc([C@@H]2CO2)cc1
- mutagenic call (Test System: AMES SALMONELLA TYPHIMURIUM, Strain/Indicator: TA100, Metabolic Activation: NONE): active; positive
- mutagenic call (Test System: AMES SALMONELLA TYPHIMURIUM, Strain/Indicator: TA100, Metabolic Activation: NONE, Method: STANDARD PLATE): active; positive

SMILES: Brc1ccc(C2CO2)cc1 (configuration not stated)
- mutagenic call (Test System: E. COLI, Strain/Indicator: WP2 UVRA, Metabolic Activation: NONE, Method: STANDARD PLATE): active; positive
